Here are results for 3 molecules from patent US6680055B1, “Mycolactone and related compounds, compositions and methods of use” (priority 1999, dated 2004).

SMILES strings stand for the structures.

Test [1] has as its system SF-268 central nervous system cancer cells. Nature of the test: National Cancer Institute growth testing, SF-268. Type of test: cell-based. The protocol: (§1) Acetone-soluble lipids (ASLs) were prepared from intact M. ulcerans cells as in Example 1, except that the acetone resuspension was applied to a preparative TLC plate to allow substantial separation of the ASLs based on relative mobility in the TLC system. The ASL with a mobility of 0.23 relative to the solvent front was scraped from the plate and resuspended.

Test [2] deals with MCF-7 breast cancer cells. The test can be described thus: National Cancer Institute growth testing, MCF-7. The class given is cell-based. Here is the method:
as §1

Test [3] deals with infiltration of macrophages and polymorphonuclear neutrophils. The test can be described thus: Inflammatory reaction at site of M. marinum infection in guinea pigs. Type of test: in vivo, Hartley guinea pigs. The following applies: 16 hours after infection. The protocol:
Mycolactone was purified as in Example 2. Hartley guinea pigs were inoculated with an infectious quantity of M. marinum. When the inoculum was not accompanied by mycolactone, a painful, purulent lesion developed in the guinea pigs, indicative of an inflammatory reaction. In contrast, when mycolactone was injected into the locus, tissue necrosis still developed, but the infiltration of macrophages and polymorphonuclear neutrophils was delayed by 24 to 48 hours, resulting in greater than a 1,000-fold reduction in the number of neutrophils invading the site of infection 16 hours after infection. Inflammation, or the lack thereof, was confirmed by histopathological examination of paraffin embedded tissues stained with eosin and hematoxylin. While not desiring to be bound by any particular theory, it is believed that the subsequent inflammation that occurred in mycolactone-treated animals was partially a consequence of the continued growth of M. marinum. When the polyketide macrolides of the present invention are used to decrease inflammation at a site of infection, the inventive method is optionally accompanied by the administration of antibiotics.

The subject of the next test is H460 lung cancer cells. Nature of the test: National Cancer Institute growth testing, H460. The class given is cell-based. Here is the method:
as §1

A short description of test [4]: Biological activity level of mycolactones (test not specified).

In the case of `CC(=C/C(C)=C/C=C/C(C)=C/C(O)C(O)CC(C)O)/C=C/C(=O)OC1CCCC(=O)OC(C(C)C/C(C)=C/C(C)C(O)CC(C)O)C/C=C(\C)CC1C` (stereo not drawn) [mycolactone], the relative growth rate was −79% in test [1], −78% in test [2] and −72% with H460 lung cancer cells. Further, the “reduction in the number of neutrophils invading the site of infection” value in test [3] is given as > 1,000 fold.

Regarding `CC(=C\C=C\C(C)=C\C[C@@H](O)C[C@H](C)O)/C=C(C)/C=C/C(=O)O[C@H]1CCCC(=O)O[C@@H]([C@@H](C)C/C(C)=C/[C@@H](C)[C@H](O)C[C@@H](C)O)C/C=C(\C)C[C@@H]1C` [mycolactone C], the “activity level relative to the other mycolactones” value in test [4] (mycolactone found in Australian isolates) is reported as “about 10,000 fold lower”.

For the molecule `C/C1=C/C[C@H]([C@@H](C)C/C(C)=C/[C@@H](C)[C@H](O)C[C@@H](C)O)OC(=O)CCC[C@H](OC(=O)/C=C/C(C)=C/C(C)=C/C=C/C(C)=C/[C@H](O)[C@@H](O)C[C@H](C)O)[C@@H](C)C1` [B], in test [4] (isomers differing at the 4′ position), the “biological activity of isomers compared” value is recorded as “same biological activity”.
